Here are results for seven compounds from patent US12029744B2, “Bicyclic heteroaryl derivatives as ectonucleotide pyrophosphatase phosphodiesterase 1 inhibitors” (Riboscience LLC, priority 2019, dated 2024).

Usually Ki stands for a measure of affinity in units of concentration, obtained from inhibition or displacement.

One assay deals with HGS tumor model. The assay is described as follows: Anti-tumor activity in HGS tumor model. It counts as in vivo. As to conditions: animals treated with 20/kg of compound, day 42 after inoculation (vehicle group 645).
Excerpt: […]

In another assay the target is T1, ENPP1 (Homo sapiens, UniProt P22413).
T1 sequence (P22413 1-925): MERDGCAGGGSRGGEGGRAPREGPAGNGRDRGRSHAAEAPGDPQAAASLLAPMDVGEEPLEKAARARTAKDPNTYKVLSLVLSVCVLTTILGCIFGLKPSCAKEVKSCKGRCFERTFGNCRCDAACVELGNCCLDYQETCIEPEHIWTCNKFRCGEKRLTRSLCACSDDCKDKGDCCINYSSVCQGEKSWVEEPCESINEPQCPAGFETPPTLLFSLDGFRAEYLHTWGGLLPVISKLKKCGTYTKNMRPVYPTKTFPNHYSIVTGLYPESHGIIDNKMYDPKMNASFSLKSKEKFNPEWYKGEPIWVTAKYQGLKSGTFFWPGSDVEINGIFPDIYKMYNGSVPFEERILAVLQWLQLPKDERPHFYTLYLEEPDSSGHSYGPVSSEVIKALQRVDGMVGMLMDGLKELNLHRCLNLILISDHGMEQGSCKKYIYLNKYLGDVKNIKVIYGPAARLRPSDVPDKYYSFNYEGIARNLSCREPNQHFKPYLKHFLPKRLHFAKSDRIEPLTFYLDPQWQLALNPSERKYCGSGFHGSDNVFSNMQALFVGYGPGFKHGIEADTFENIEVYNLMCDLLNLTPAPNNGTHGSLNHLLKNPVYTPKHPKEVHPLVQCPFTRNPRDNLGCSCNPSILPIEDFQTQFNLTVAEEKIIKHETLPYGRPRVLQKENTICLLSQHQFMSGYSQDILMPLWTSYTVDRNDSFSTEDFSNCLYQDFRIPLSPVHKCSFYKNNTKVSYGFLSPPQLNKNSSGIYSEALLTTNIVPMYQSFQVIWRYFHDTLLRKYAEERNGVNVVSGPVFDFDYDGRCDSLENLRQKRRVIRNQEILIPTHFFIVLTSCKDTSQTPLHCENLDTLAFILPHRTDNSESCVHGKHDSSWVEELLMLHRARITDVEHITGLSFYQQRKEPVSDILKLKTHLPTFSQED
The assay is described as follows: Measurement of pNP-TMP hydrolysis by ENPP1 (enzyme activity assay, absorbance at 405 nm). It counts as biochemical. The method, then:
Measurement of pNP-TMP Hydrolysis by ENPP1
p-Nitrophenyl thymidine 5′-monophosphate (pNP-TMP) is a synthesized substrate for ENPP1. The ENPP1 enzyme activity assay with pNP-TMP substrate was conducted as follows:
Incubation of ENPP1 with compounds was set at 25° C. for 10 min. […] For each compound dilution, wells with assay buffer (50 mM Tris-HCl, pH8.8, 250 mM NaCl, 0.1 mg/ml BSA, 1% DMSO) only but no ENPP1 were included as controls for subtraction of test compound derived absorbance at 405 nm.
Absorbance at 405 nm was recorded immediately in kinetic mode by PerkinElmer 2300 Enspire multimode plate reader.
For each inhibitor, the specific ENPP1 activity was calculated using the following equation: ENPP1 activity (pmol/min/μg)=Adjusted Vmax (OD405 nm/min)×conversion factor (pmol/OD405 nm)/amount of enzyme (μg)
Adjusted Vmax=V0×(Km+(S))/(S).
V0=(OD405 nm with ENPP1−OD405 nm ENPP1 blank)/minutes. OD405 nm was plotted, with blank subtracted, against time (minutes), the initial linear rate is V0. […]
The slope is the conversion factor. The percent ENPP1 activity for each sample was calculated using the following equation: % enzyme activity=sample enzyme activity/MAX Activity×100%.
To determine the IC50 for each compound, compound concentration values and percent enzyme activity values were inserted into GraphPad Prism (GraphPad Prism version 7.0 for Windows, GraphPad Software, La Jolla California USA, www.graphpad.com), and Prism's Transform analysis was used to convert the x-axis values (compound concentration) to logarithms. A sigmoidal variable slope nonlinear regression analysis was performed using the following equation: Y=Bottom+(Top−Bottom)/(1+10^[…])).

Setting [1] is: substrate pNP-TMP 500 μM, KM 232 μM, Ki from IC50 by Cheng-Prusoff, read-out: Ki (pNP-TMP).

Like-named read-outs stand apart in the source and are kept apart here. A value given as a limit tells only on which side of the number the result lay.

In turn, `C=CC(=O)N1CCN(CCCn2c(=O)c(-c3c(Cl)c(OC)cc(OC)c3Cl)cc3cnc(NC)nc32)CC1` [8-(3-(4-acryloylpiperazin-1-yl)propyl)-6-(2,6-dichloro-3,5-dimethoxyphenyl)-2-(methylamino)pyrido[2,3-d]pyrimidin-7(8H)-one] gave a tumor size in the assay on HGS tumor model of 55 mm3.

For `NC(=O)c1ccc2c(ncn2Cc2ccc(P(=O)(O)O)cc2)n1` [Compound 138, 4-((5-carbamoylimidazo[4,5-b]pyridin-1-yl)methyl)phenylphosphonic acid], at ENPP1, the Ki was under 100 nM.

As for `NC(=O)c1ccc2c(ccn2Cc2ccc(P(=O)(O)O)cc2)c1` [Compound 142, 4-((5-carbamoylindol-1-yl)methyl)phenylphosphonic acid], at ENPP1 (setting [1]), the Ki was under 1000 nM.

Regarding `NC(=O)c1ccc2c(c1)c(Cl)cn2Cc1ccc(P(=O)(O)O)cc1` [Compound 143, 4-((5-carbamoyl-3-chloroindol-1-yl)methyl)phenylphosphonic acid], the Ki at ENPP1 (setting [1]) was under 1000 nM.

For the compound `Cc1nc2nc(C(N)=O)ccc2n1Cc1ccc(B(O)O)cc1` [Compound 144, (4-((5-carbamoyl-2-methyl-1H-imidazo[4,5-b]pyridin-1-yl)methyl)phenyl)boronic acid], the inhibition constant (Ki) on ENPP1 (setting [1]) is under 10 nM.

Consider `CC(C)c1nc2nc(C(N)=O)ccc2n1Cc1ccc(B(O)O)cc1` [Compound 146, 4-((5-carbamoyl-2-isopropylimidazo[4,5-b]pyridin-1-yl)methyl)phenylboronic acid], for which, on ENPP1 (setting [1]), the inhibition constant Ki is under 10 nM.

As to `O=P(O)(O)c1ccc(Cn2cnc3nc(O)ccc32)cc1` [Compound 150, 4-((5-hydroxyimidazo[4,5-b]pyridin-1-yl)methyl)phenylphosphonic acid], the Ki on ENPP1 (setting [1]) was under 100 nM.
